According to patent US5527703A (Merck & Co., Inc., priority 1994, dated 1996):

Assays:
[1] = biological target: T1, GluCl α&β (Caenorhabditis elegans, UniProt G5EBR3+Q17328); assay: Agonist activation of current in Xenopus oocytes injected with GluClα and GluClβ RNA (two-microelectrode voltage clamp); format: cell-based, C. elegans; details: for type of drug-sensitive current: GluCl α&β oocytes; for voltage dependence of current: I/V
T1 construct: the full-length open reading frame of the GluCl cDNA encoding the GluClα (52,550 kDa) and GluClβ (49,900kDa) subunits; expressed in transfected cells; host or cells: Xenopus laevis oocytes injected with in vitro RNA
T1 sequence (G5EBR3 21-461): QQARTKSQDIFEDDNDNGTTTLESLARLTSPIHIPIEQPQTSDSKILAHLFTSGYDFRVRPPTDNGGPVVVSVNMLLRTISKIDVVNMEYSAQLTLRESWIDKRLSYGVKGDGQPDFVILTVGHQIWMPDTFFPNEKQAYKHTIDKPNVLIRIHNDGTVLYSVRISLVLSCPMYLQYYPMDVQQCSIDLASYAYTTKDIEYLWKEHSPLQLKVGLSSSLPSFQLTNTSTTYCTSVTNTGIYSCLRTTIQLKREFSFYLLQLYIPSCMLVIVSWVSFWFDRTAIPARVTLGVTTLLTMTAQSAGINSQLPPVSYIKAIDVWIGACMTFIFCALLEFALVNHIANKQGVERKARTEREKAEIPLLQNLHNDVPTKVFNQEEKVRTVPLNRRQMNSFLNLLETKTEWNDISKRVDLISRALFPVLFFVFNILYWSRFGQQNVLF
T1 sequence (Q17328 23-434): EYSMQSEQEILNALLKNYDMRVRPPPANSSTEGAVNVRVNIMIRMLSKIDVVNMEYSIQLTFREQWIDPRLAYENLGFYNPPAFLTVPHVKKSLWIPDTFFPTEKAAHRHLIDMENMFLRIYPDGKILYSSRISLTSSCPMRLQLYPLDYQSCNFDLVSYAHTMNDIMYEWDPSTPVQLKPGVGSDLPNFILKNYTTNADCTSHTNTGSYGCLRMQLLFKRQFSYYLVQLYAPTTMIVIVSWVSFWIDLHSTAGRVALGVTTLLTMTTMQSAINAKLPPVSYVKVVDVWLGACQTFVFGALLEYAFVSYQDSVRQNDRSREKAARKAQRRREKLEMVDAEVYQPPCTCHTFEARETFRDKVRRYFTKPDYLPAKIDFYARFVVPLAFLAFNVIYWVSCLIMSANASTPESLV
Procedure: (§1) Xenopus laevis oocytes were prepared and injected using standard methods previously described and known in the art [Arena, J. P., Liu. K. K., Paress, P. S. & Cully. D. F. Mol. Pharmacol. 40, 368-374 (1991 ); Arena, J. P., Liu, K. K., Paress, P. S., Schaeffer, J. M. & Cully, D. F. Mol. Brain Res. 15, 339-348 (1992)]. Adult female Xenopus laevis were anesthetized with 0.17% tricaine methanesulfonate and the ovaries were surgically removed and placed in a dish consisting of (mM): NaCl 1 82.5, KCl 2. MgCl2 1, CaCl2 1.8, HEPES 5 adjusted to pH 7.5 with NaOH (OR-2). Ovarian lobes were broken open, rinsed several times, and gently shaken in OR-2 containing 0.2% collagenase (Sigma, Type 1A) for 2-5 hours. When approximately 50% of the follicular layers were removed, Stage V and VI oocytes were selected and placed in media consisting of (mM): NaCl 86, KCl 2, MgCl2 1, CaCl2 1.8, HEPES 5, Na pyruvate 2.5, theophylline 0.5, gentamicin 0.1 adjusted to pH 7.5 with NaOH (ND-96) for 24-48 hours before injection. Oocytes were injected with 50-70 nl of poly(A^+) RNA (1 mg/ml) or 50 nl of GluClα (0.1-100 ng) and/or GluClβ (0.1-100 ng). Control oocytes were injected with 50 nl of water. Oocytes were incubated for 2-10 days in ND-96 before recording. Incubations and collagenase digestion were carried out at 18° C.
Recordings were made at room temperature 2-10 days after injection. Unless otherwise indicated recordings were made in standard frog saline consisting of (mM): NaCl 115, KCl 2, MgCl2 1, CaCl2 1.8, HEPES 10 adjusted to pH 7.5 with NaOH. Oocytes were voltage-clamped using a standard two microelectrode amplifier (Dagan 8500 or TEV-200, Minneapolis,Minn.). Pipettes were filled with 3M KCl and had resistances between 0.5-3.0 M.OMEGA.. A plexiglass recording chamber (volume 200 μl) was constantly perfused at a rate of 10 ml/min. The recording chamber was connected to ground with a Ag/AgCl electrode directly, or through a 3M KCl agar bridge when extracellular chloride was varied. For low chloride solutions NaCl was replaced with equimolar concentrations of sodium isethionic acid. For low sodium solutions NaCl was replaced with equimolar KCl or choline Cl. Data were acquired and analyzed using PCLAMP with a TL-1 interface (Axon Instruments, Foster City, Calif.). Membrane current at a holding potential of -80 mV was recorded. The amplitude of drug-sensitive current was determined by subtracting the holding current at -80 mV from the peak current obtained in the presence of drug. Data were filtered at 30 Hz and sampled at 16.6 Hz. Current/voltage relationships (I/V) and reversal potentials (Erev) were determined using a 1-3 sec voltage ramp over the voltage range of -110 to +80 mV. For the ramps, data were filtered at 0.3-3 kHz and sampled at 160 Hz. Current in drug free solution was subtracted from current in the presence of drug to obtain drug-sensitive current/voltage relationships.
Electrophysiological properties were examined in oocytes injected with in vitro RNA from pGluClα and pGluClβ (FIG. 5).
Several ligand-gated ion channel agonists and antagonists were tested on oocytes injected with GluCl α&β (Table 1). […] 255, 449-464 (1976); Arena, J. P., Liu, K. K., Paress, P. S., Schaeffer, J. M. & Cully, D. F. Mol. Brain Res. 15, 339-348 (1992); Lea, T. J. & Usherwood, P. N. R. Comp. Gen. Pharmacol. 4, 351-363 (1973)].

[2] = tested on: glutamate- and avermectin-sensitive chloride channel (C. elegans poly(A)+ RNA); assay: Current in Xenopus oocytes injected with C. elegans poly(A)+ RNA; format: cell-based; details: for type of drug-sensitive current: poly(A)+ RNA injected oocytes
Procedure: as §1
Recordings were made at room temperature 2-10 days after injection. Unless otherwise indicated recordings were made in standard frog saline consisting of (mM): NaCl 115, KCl 2, MgCl2 1, CaCl2 1.8, HEPES 10 adjusted to pH 7.5 with NaOH. […] Data were acquired and analyzed using PCLAMP with a TL-1 interface (Axon Instruments, Foster City, Calif.). Membrane current at a holding potential of -80 mV was recorded. The amplitude of drug-sensitive current was determined by subtracting the holding current at -80 mV from the peak current obtained in the presence of drug. […] Current/voltage relationships (I/V) and reversal potentials (Erev) were determined using a 1-3 sec voltage ramp over the voltage range of -110 to +80 mV. […]

With `N[C@@H](CCC(=O)O)C(=O)O` [glutamate] the “activation of current / sensitivity of coexpressed GluCl α&β” value [1] was “direct activation of current”, the “glutamate concentrations at which desensitization of the glutamate-sensitive current was observed” value ([1]; GluCl α&β injected oocytes) was “greater than 1 mM” and the “type of drug-sensitive current” value [1] was “rapidly activating reversible”. For the same compound, the “Hill coefficient (glutamate)” value ([1]; GluCl α&β, no IVMPO4) was 1.7, the “voltage dependence of current” value ([1]; GluCl α&β) was “outwardly rectifying” and the “type of drug-sensitive current” value [2] was “rapidly activating reversible”.

ivermectin-4-O-phosphate [IVMPO4] was tested, and the “activation of current / sensitivity of coexpressed GluCl α&β” value [1] was “direct activation of current”, the “Hill coefficient (IVMPO4)” value ([1]; GluCl α&β) was 2.5 and the “time for maximal activation of IVMPO4-sensitive current” value ([1]; GluCl α&β) was 42 ± 2 s. For the same compound, the “type of drug-sensitive current” value [1] was “irreversible”, the EC50 ([1]; GluCl α&β, read-out: EC50 for IVMPO4 activation of current) was 0.19 µM and the “voltage dependence of current” value ([1]; GluCl α&β) was “outwardly rectifying”. The “% of Glutamate 10 mM” value ([1]; agonist 1 μM, -80 mV, % of response elicited with 10 mM glutamate) was 117 ± 13%, the “time for maximal activation of IVMPO4-sensitive current” value ([2]; poly(A)+ RNA) was 36 ± 3 s and the “type of drug-sensitive current” value [2] was “irreversible”.
